The source of these data is patent US20260256789A1, “METHODS FOR TREATMENT OF CANCER” (Frontier Medicines Corporation, priority 2022, published 2026).

The target of this assay is T1, KRAS G12C (GMPPNP-loaded) and cRAF Ras-binding domain (Homo sapiens, UniProt P01116, C118S/C51S/C80L/G12C).
T1 construct: truncated version comprising amino acids 1-169
T1 sequence (P01116 1-169 isoform P01116-2 G12C/C51S/C80L/C118S): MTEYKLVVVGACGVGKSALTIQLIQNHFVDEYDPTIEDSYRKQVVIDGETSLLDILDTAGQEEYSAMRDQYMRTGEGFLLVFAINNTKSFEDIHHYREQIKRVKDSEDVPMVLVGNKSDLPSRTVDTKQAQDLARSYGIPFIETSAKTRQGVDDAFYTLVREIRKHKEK
The assay can be described thus: Inhibition of KRAS G12C and cRAF binding (AlphaScreen). The note with it: KRAS G12C preloaded with GTP analogue GMPPNP, 2 hours preincubation. In short, it runs like this: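 AlphaScreen used biotin-AviTag KRAS G12C (Cys-light, aa 1-169; 0.5 nM), GMPPNP-loaded, preincubated 2 h with compound (top 50 μM, 1:3, 10 points, 2% DMSO) in pH 7.4 Hepes buffer with 10 μM GMPPNP. GST-cRAF RBD (aa 50-131; 0.75 nM) plus beads were then added for 60-90 min at room temperature, and IC50 came from a 4-parameter fit.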
Take `Cc1cc(N)nc(-c2ncc3c(N(C)[C@@H]4CCN(C(=O)C#CCN5CCOCC5)C4)nc(OC[C@@]45CCCN4C[C@H](F)C5)nc3c2F)c1C(F)(F)F` [Example 101]: the IC50 is 10 to 100 nM.

For `CN(C)CC#CC(=O)N1CC[C@@H](N(C)c2nc(OC[C@@]34CCCN3C[C@H](F)C4)nc3c(F)c(-c4nc(N)cc5cccc(F)c45)ncc23)C1` [Example 106], the IC50 was under 10 nM.

As to `C=CC(=O)N1CC[C@@H](N(C)c2nc(OC[C@@]34CCCN3C[C@H](F)C4)nc3c(F)c(-c4cc(N)nc(C)c4C(F)(F)F)ncc23)C1` [Example 107, 1-((R)-3-((7-(6-amino-2-methyl-3-(trifluoromethyl)pyridin-4-yl)-8-fluoro-2-(((2R,7aS)-2-fluorotetrahydro-1H-pyrrolizin-7a(5H)-yl)methoxy)pyrido[4,3-d]pyrimidin-4-yl)(methyl)amino)pyrrolidin-1-yl)prop-2-en-1-one], the IC50 is 10 to 100 nM. To `CN1CC[C@H]1/C=C/C(=O)N1CC[C@@H](N(C)c2nc(OC[C@@]34CCCN3C[C@H](F)C4)nc3c(F)c(-c4nc(N)cc5cccc(Cl)c45)ncc23)C1` [Example 108] belongs 10 to 100 nM; to `C=CC(=O)N1CC(CN(C)c2nc(OCC34CCCN3CCC4)nc3c2C[C@H](C)[C@@H](c2nc(N)cc(C)c2C(F)(F)F)C3)C1` [Example 109], at least 500 nM; to `CN(C)CC#CC(=O)N1CC(CN(C)c2nc(OC[C@@]34CCCN3C[C@H](F)C4)nc3c(F)c(-c4nc(N)cc5cccc(Cl)c45)ncc23)C1` [Example 110], 10 to 100 nM. Consider `C=CC(=O)N1CC[C@@H](N(C)c2nc(OC[C@@]34CCCN3C[C@H](F)C4)nc3c2CCN(c2nc(N)cc(C)c2C(F)(F)F)C3)C1` [Example 111, 1-((R)-3-((7-(6-amino-4-methyl-3-(trifluoromethyl)pyridin-2-yl)-2-(((2R,7aS)-2-fluorotetrahydro-1H-pyrrolizin-7a(5H)-yl)methoxy)-5,6,7,8-tetrahydropyrido[3,4-d]pyrimidin-4-yl)(methyl)amino)pyrrolidin-1-yl)prop-2-en-1-one], for which the IC50 was at least 500 nM. To `CN(CC1CN(C(=O)/C=C/c2nc(C(C)(F)F)no2)C1)c1nc(OC[C@@]23CCCN2C[C@H](F)C3)nc2c(F)c(-c3nc(N)cc4cccc(F)c34)ncc12` [Example 113] belongs under 10 nM; to `Cc1cc(N)nc(-c2ncc3c(N(C)CC4CN(C(=O)C#CCN5CCOCC5)C4)nc(OC[C@@]45CCCN4C[C@H](F)C5)nc3c2F)c1C(F)(F)F` [Example 114], 10 to 100 nM; to `Cc1noc(/C=C/C(=O)N2CC[C@@H](N(C)c3nc(OC[C@@]45CCCN4C[C@H](F)C5)nc4c3CC(C)C(c3nc(N)cc(C)c3C(F)(F)F)C4)C2)n1` (stereo partly drawn) [Example 115], under 10 nM. The compound `CN(c1nc(OC[C@@]23CCCN2C[C@H](F)C3)nc2c(F)c(-c3nc(N)cc4cccc(Cl)c34)ncc12)[C@@H]1CCN(C(=O)/C=C/CN2CCOCC2)C1` [Example 116] yielded an IC50 of 100 to 500 nM.

As for `CC(C)c1noc(/C=C/C(=O)N2CC(CN(C)c3nc(OC[C@@]45CCCN4C[C@H](F)C5)nc4c(F)c(-c5nc(N)cc6cccc(Cl)c56)ncc34)C2)n1` [Example 118], the IC50 fell in the range of 100 to 500 nM. To `Cc1cc(N)nc(-c2ncc3c(N(C)[C@@H]4CCN(C(=O)/C=C/CN5CCOCC5)C4)nc(OC[C@@]45CCCN4C[C@H](F)C5)nc3c2F)c1C(F)(F)F` [Example 120] belongs 100 to 500 nM. To `Cc1noc(/C=C/C(=O)N2CC[C@@H](N(C)c3nc(OCC45CCCN4CCC5)nc4c3C[C@@H](C)[C@H](c3nc(N)cc(C)c3C(F)(F)F)C4)C2)n1` [Example 124] belongs 100 to 500 nM.

The compound `C=CC(=O)N1CC[C@@H](N(C)c2nc(OC[C@@]34CCCN3C[C@H](F)C4)nc3c(F)c(-c4nc(N)ccc4C)ncc23)C1` [Example 125, 1-((R)-3-((7-(6-amino-3-methylpyridin-2-yl)-8-fluoro-2-(((2R,7aS)-2-fluorotetrahydro-1H-pyrrolizin-7a(5H)-yl)methoxy)pyrido[4,3-d]pyrimidin-4-yl)(methyl)amino)pyrrolidin-1-yl)prop-2-en-1-one] returned an IC50 of at least 500 nM.

For `C=CC(=O)N1CC(CN(C)c2nc(OC[C@@]34CCCN3C[C@H](F)C4)nc3c(F)c(-c4nc(N)cc5cccc(F)c45)ncc23)C1` [Example 128, 1-(3-(((7-(3-amino-8-fluoroisoquinolin-1-yl)-8-fluoro-2-(((2R,7aS)-2-fluorotetrahydro-1H-pyrrolizin-7a(5H)-yl)methoxy)pyrido[4,3-d]pyrimidin-4-yl)(methyl)amino)methyl)azetidin-1-yl)prop-2-en-1-one], the IC50 was at least 500 nM. `Cc1cc(N)nc(-c2ncc3c(N(C)CC4CN(C(=O)/C=C/CN5CCOCC5)C4)nc(OC[C@@]45CCCN4C[C@H](F)C5)nc3c2F)c1C(F)(F)F` [Example 129] returned an IC50 of 100 to 500 nM.

`C=CC(=O)N1CC(CN(C)c2nc(OCC34CCCN3CCC4)nc3c(F)c(-c4nc(N)cc(C)c4C4CC4)ncc23)C1` [Example 131, 1-(3-(((7-(6-amino-3-cyclopropyl-4-methylpyridin-2-yl)-8-fluoro-2-((tetrahydro-1H-pyrrolizin-7a(5H)-yl)methoxy)pyrido[4,3-d]pyrimidin-4-yl)(methyl)amino)methyl)azetidin-1-yl)prop-2-en-1-one] came in with an IC50 of at least 500 nM. To `C=CC(=O)N1CC(CN(C)c2nc(OC[C@@]34CCCN3C[C@H](F)C4)nc3c2C[C@@H](C)[C@H](c2nc(N)cc(C)c2C(F)(F)F)C3)C1` [Example 132] belongs 100 to 500 nM. To `C=CC(=O)N1CC(CN(C)c2nc(OC[C@@]34CCCN3C[C@H](F)C4)nc3c(F)c(-c4nc(N)cc(C)c4C4CC4)ncc23)C1` [Example 133, 1-(3-(((7-(6-amino-3-cyclopropyl-4-methylpyridin-2-yl)-8-fluoro-2-(((2R,7aS)-2-fluorotetrahydro-1H-pyrrolizin-7a(5H)-yl)methoxy)pyrido[4,3-d]pyrimidin-4-yl)(methyl)amino)methyl)azetidin-1-yl)prop-2-en-1-one] belongs at least 500 nM; to `CN1CC[C@H]1/C=C/C(=O)N1CC[C@@H](N(C)c2nc(OC[C@@]34CCCN3C[C@H](F)C4)nc3c(F)c(-c4nc(N)cc5cccc(F)c45)ncc23)C1` [Example 135], 100 to 500 nM; to `Cc1noc(/C=C/C(=O)N2CC[C@@H](N(C)c3nc(OC[C@@]45CCCN4C[C@H](F)C5)nc4c3C[C@@H](C)[C@H](c3nc(N)cc(C)c3C(F)(F)F)C4)C2)n1` [Example 136], under 10 nM.

`C=CC(=O)N1CC(CN(C)c2nc(OC[C@@]34CCCN3C[C@H](F)C4)nc3c2C[C@H](C)[C@@H](c2nc(N)cc(C)c2C(F)(F)F)C3)C1` [Example 137, 1-(3-((((6S,7S)-7-(6-amino-4-methyl-3-(trifluoromethyl)pyridin-2-yl)-2-(((2R,7aS)-2-fluorotetrahydro-1H-pyrrolizin-7a(5H)-yl)methoxy)-6-methyl-5,6,7,8-tetrahydroquinazolin-4-yl)(methyl)amino)methyl)azetidin-1-yl)prop-2-en-1-one]: the half-inhibitory concentration (IC50) was at least 500 nM. To `C=CC(=O)N1CC[C@@H](N(C)c2nc(OC[C@@]34CCCN3C[C@H](F)C4)nc3c2CC(C)C(c2nc(N)cc(C)c2C(F)(F)F)C3)C1` (stereo partly drawn) [Example 138] belongs 100 to 500 nM.

For the compound `Cc1cc(N)nc(-c2ncc3c(N(C)[C@@H]4CCN(C(=O)/C=C/c5nc(C(C)(C)O)no5)C4)nc(OC[C@@]45CCCN4C[C@H](F)C5)nc3c2F)c1C(F)(F)F` [Example 139], the IC50 was under 10 nM. To `Cc1nccc(/C=C/C(=O)N2CC(CN(C)c3nc(OC[C@@]45CCCN4C[C@H](F)C5)nc4c(F)c(-c5nc(N)cc6cccc(F)c56)ncc34)C2)n1` [Example 141, (E)-1-(3-(((7-(3-amino-8-fluoroisoquinolin-1-yl)-8-fluoro-2-(((2R,7aS)-2-fluorotetrahydro-1H-pyrrolizin-7a(5H)-yl)methoxy)pyrido[4,3-d]pyrimidin-4-yl)(methyl)amino)methyl)azetidin-1-yl)-3-(2-methylpyrimidin-4-yl)prop-2-en-1-one] belongs 10 to 100 nM.

Take `CN(c1nc(OC[C@@]23CCCN2C[C@H](F)C3)nc2c(F)c(-c3nc(N)cc4cccc(F)c34)ncc12)[C@@H]1CCN(C(=O)/C=C/c2nc(C(C)(C)O)no2)C1` [Example 142]: the IC50 is under 10 nM.

On to `Cc1noc(/C=C/C(=O)N2CC[C@@H](N(C)c3nc(OCC45CCCN4CCC5)nc4c3CC(C)C(c3nc(N)cc(C)c3C(F)(F)F)C4)C2)n1` (stereo partly drawn) [Example 143], for which the IC50 is under 10 nM. To `C=CC(=O)N1CC[C@@H](N(C)c2nc(OC[C@@]34CCCN3C[C@H](F)C4)nc3c2C[C@H](C)[C@@H](c2nc(N)cc(C)c2C(F)(F)F)C3)C1` [Example 145, 1-((R)-3-(((6S,7S)-7-(6-amino-4-methyl-3-(trifluoromethyl)pyridin-2-yl)-2-(((2R,7aS)-2-fluorotetrahydro-1H-pyrrolizin-7a(5H)-yl)methoxy)-6-methyl-5,6,7,8-tetrahydroquinazolin-4-yl)(methyl)amino)pyrrolidin-1-yl)prop-2-en-1-one] belongs at least 500 nM; to `C=CC(=O)N1CC(CN(C)c2nc(OC[C@@]34CCCN3C[C@H](F)C4)nc3c(F)c(-c4nc(N)cc(C)c4C)ncc23)C1` [Example 146, 1-(3-(((7-(6-amino-3,4-dimethylpyridin-2-yl)-8-fluoro-2-(((2R,7aS)-2-fluorotetrahydro-1H-pyrrolizin-7a(5H)-yl)methoxy)pyrido[4,3-d]pyrimidin-4-yl)(methyl)amino)methyl)azetidin-1-yl)prop-2-en-1-one], at least 500 nM.
